Laboratory results published in publication PMC11143257, “Atomistic mechanism of coupling between cytosolic sensor domain and selectivity filter in TREK K2P channels” (Nature Communications, 2024).
Substitutions are numbered along the chain they refer to.

Legend:
TREK-2* = target: T1, TREK-2* (Homo sapiens, UniProt P57789); assay: Activation of truncated construct; type: cell-based; design: was truncated from WT and includes amino acids 67 - 355; expressed in transfected cells; host or cells: Xenopus laevis oocytes (cRNA injection, pFAW vector); conditions: comparable to WT, peer review file
T1 sequence (P57789 67-355 isoform P57789-4): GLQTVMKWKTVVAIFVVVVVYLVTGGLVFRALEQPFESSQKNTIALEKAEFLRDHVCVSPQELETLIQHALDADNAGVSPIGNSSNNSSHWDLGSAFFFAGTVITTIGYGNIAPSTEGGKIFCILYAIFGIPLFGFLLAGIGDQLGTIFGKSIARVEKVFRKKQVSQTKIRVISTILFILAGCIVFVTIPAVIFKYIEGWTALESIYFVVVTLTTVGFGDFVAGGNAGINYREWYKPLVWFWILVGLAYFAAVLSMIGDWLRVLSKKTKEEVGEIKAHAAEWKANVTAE
From the text: page 27: Answer: We agree with the reviewer that applying statistical tests to our simulation data would enhance the confidence in interpreting some of the results. However, in this study, due to the relatively large size of the systems that require extensive simulation time, we were limited to conducting only five to seven independent simulation runs for each setup. According to the checklist and recommendations provided by Nature Journal (PMID: 36918708), a minimum of three simulations per condition is advisable. Given that we only have data from these limited simulation runs, conducting a p-test is challenging. Nonetheless, as we noted in the main text, in all 5 simulations of the down-state, we observed a robust conformational change at the S1 binding site. Conversely, in all five up-state simulations, the SF remained a conductive conformation. […] Minor comments: Are there any differences in function between full-length TREK-2 and the TREK-2* construct? […] 22

WT hTREK-2 = assay: Direct application of PKC inhibitor, oocytes; type: cell-based, human; conditions: oocytes expressing WT hTREK-2
From the text: This study by Türkaydin and colleagues combines functional studies of TREK channels with MD simulations and proposes an explanation for the molecular mechanism of phosphorylation-mediated regulation of channel activity, and a general framework for how down-to-up transitions of TM4 is coupled to activation of the SF gate. Using elegant MTS-modification, phospho-mimetic mutagenesis, and norfluoxetine sensitivity experiment - and […]
TM4 increases channel opening which is a plausible explanation for the inverse inhibitory effect of phosphorylation of the extended M4 helix.
The molecular dynamics approaches are mostly outside of my expertise and so I cannot comment on the technical elements. However, the interaction network analysis supports previous models that upwards movement of TM4 is associated with opening of the SF gate and highlights previously identified and potential novel residues responsible. […]
results provide interesting advances which improve our understanding of TREK channel […]
We thank the reviewer for the positive evaluation of our work and the many helpful comments to improve the manuscript. The reviewer specific comments are addressed below:
- and this is an excellent opportunity to clarify some important outstanding questions in the […]
state. This is an interesting and important finding, which would help to explain TREK channel regulation in vivo. […]

hTREK-1 = assay: Direct application of PKC inhibitor, HEK293 whole-cell; type: cell-based, human; conditions: 1.0 µM; HEK293 cells, whole-cell configuration; within 30 min; n = 6
Description: Further, we also tested the direct application of 1.0 µM of the PKC inhibitor BIM I to HEK293 cells (in whole-cell configuration) expressing hTREK-1. Similarly, under these conditions, TREK-1 channel currents were not altered within 30 min. (n = 6). Thus, it appears that under […]
of the PKC site. Unfortunately, it is not known which phosphatase mediates the dephosphorylation of the PKC site in TREK channels nor are pharmacological phosphatase activators known that could be used promote the dephosphorylation.
The interaction network analysis provides possible explanations for how TM4 movement is transduced to SF gate opening. As mentioned, this analysis highlights a number of residues […]
W326, R237 in Dong et al., 2015). The authors are well placed to determine whether mutation of these residues, in silico, destabilizes the down-state and to show how this might promote stabilization of the conductive SF. […]
through interaction network analysis and previous mutation studies, can aid in studying the conformational change from down- to up-state in the channel and how this is related to the conformational change in the SF. However, the timescale for the conformational movement in […]
2 channels. In only 3 out of 7 simulations, each lasting 3 μs, did we observe a complete transition from up to down. […]
well-suited for assessing the impact of mutations. […]

TREK-1 V322C = target: T2, TREK-1 V322C (Homo sapiens, UniProt O95069, V322C); assay: MTS probe modification, inside-out patch-clamp; type: cell-based; conditions: MTS-ET+ 1 mM, symmetrical K+, -80 mV (Supplementary Fig. 2d)
T2 construct: expressed in transfected cells; host or cells: Xenopus laevis oocytes (cRNA injection), excised inside-out patches
T2 sequence (O95069 1-426 V322C): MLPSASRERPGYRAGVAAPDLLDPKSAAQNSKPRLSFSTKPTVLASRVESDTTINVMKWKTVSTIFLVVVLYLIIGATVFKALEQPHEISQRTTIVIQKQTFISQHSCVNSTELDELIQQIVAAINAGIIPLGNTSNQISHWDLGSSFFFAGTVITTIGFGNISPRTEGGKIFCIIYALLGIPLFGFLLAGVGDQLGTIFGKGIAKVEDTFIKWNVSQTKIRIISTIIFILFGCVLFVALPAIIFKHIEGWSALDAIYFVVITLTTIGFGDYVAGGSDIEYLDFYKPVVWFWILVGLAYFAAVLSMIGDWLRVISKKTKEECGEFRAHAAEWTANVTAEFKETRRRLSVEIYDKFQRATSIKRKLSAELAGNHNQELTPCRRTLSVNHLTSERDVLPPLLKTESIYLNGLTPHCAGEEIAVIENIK
Description: (§1) First, we measured WT TREK-1, WT TRAAK and TREK-2^* channels without modifiable cysteine residues as references. […] Note, that patch integrity and channel regulation were tested with either 1 mM tetra-pentyl-ammonium (TPenA) and a short pHi activation step. Next, we conducted systematic cysteine scanning mutagenesis of the entire pCt and examined the effect of charged and aliphatic MTS probes.
(§2) Xenopus laevis oocytes were surgically removed from anesthetized adult females, treated with type II collagenase (Sigma-Aldrich/Merck, Germany) and manually defolliculated. A solution containing the K^+ channel-specific cRNA at a desired concentration was injected into Dumont stage V - VI oocytes and subsequently incubated at 17 °C in a solution containing (mM): 54 NaCl, […], 2.4 NaHCO3, 0.82 MgSO4 x 7 H2O, 0.41 CaCl2, 0.33 Ca(NO3)2 x 4 H2O and 7.5 TRIS (pH 7.4 adjusted with NaOH/HCl) for 1 - 7 days before use. Patch-clamp recordings in an inside-out configuration under voltage-clamp conditions were performed at room temperature (22 - 24 °C). Patch pipettes were made from thick-walled borosilicate glass GB 200TF-8P (Science Products, Germany), had resistances of 0.2 - 0.5 MΩ (tip diameter of 10 - 25 µm) and filled with a pipette solution (in mM): 120 KCl, 10 HEPES and 3.6 CaCl2 (pH 7.4 adjusted with KOH/HCl). Intracellular bath solutions and compounds were applied to the cytoplasmic side of excised patches for the various K^+ channels via a gravity flow multi-barrel pipette system. The intracellular solution had the following composition (in mM): 120 KCl, 10 HEPES, 2 EGTA, and 1 Pyrophosphate (pH adjusted with KOH/HCl). Currents were recorded with an EPC10 amplifier (HEKA electronics, Germany) and sampled at 10 kHz or higher and filtered with 3 kHz (-3 dB) or higher as appropriate for the sampling rate.
(§3) Tetra-pentyl-ammonium chloride (TPenA) was purchased from Merck (Sigma-Aldrich), prepared as 100 mM stocks in intracellular recording solution, stored at −20 °C and diluted to a final concentration in intracellular recording solution before measurements. Decyl-MethaneThioSulfonate (Decyl-MTS), (2-(trimethylammonium)ethyl)MethaneThioSulfonate bromide (MTS-ET^+) and Sodium (2-sulfonatoethyl)MethaneThioSulfonate (MTS-ES^-) were purchased from Toronto Research Chemicals. MTS-ET^+ was directly dissolved to the desired concentration of 1 mM in the intracellular recording solution before each experiment. MTS-ET^+ was used immediately after dilution for maximally 5 min. Decyl-MTS and […] were prepared as 10 - 100 mM stocks in DMSO and diluted to the desired concentration before the measurements.
(§4) The fold current increase (fold activation) of a ligand (decyl-MTS) was calculated from the following equation:1 FoldactivationFA=Iactivated/Ibasal with Iactivated represents the stable current level in the presence of 100 µM decyl-MTS and Ibasal the measured current before application of the MTS probe.

TREK-1 T318C = target: T3, TREK-1 T318C (Homo sapiens, UniProt O95069, T318C); assay: MTS probe modification, inside-out patch-clamp; type: cell-based; conditions: MTS-ET+ 1 mM, symmetrical K+, -80 mV (Supplementary Fig. 2d)
T3 construct: expressed in transfected cells; host or cells: Xenopus laevis oocytes (cRNA injection), excised inside-out patches
T3 sequence (O95069 1-426 T318C): T2 sequence (O95069 1-426 V322C) with T318C, C322V
Description: as §1, §2, §3, §4

TREK-1 F325C = target: T4, TREK-1 F325C (Homo sapiens, UniProt O95069, F325C); assay: MTS probe modification, inside-out patch-clamp; type: cell-based; conditions: MTS-ET+ 1 mM, symmetrical K+, -80 mV (Supplementary Fig. 2d)
T4 construct: expressed in transfected cells; host or cells: Xenopus laevis oocytes (cRNA injection), excised inside-out patches
T4 sequence (O95069 1-426 F325C): T2 sequence (O95069 1-426 V322C) with C322V, F325C
Description: as §1, §2, §3, §4

## CCCCC/C=C\C/C=C\C/C=C\C/C=C\CCCC(=O)O [arachidonic acid]
TREK-2*
  activation: activated

## CN(C)CCCn1cc(C2=C(c3c[nH]c4ccccc34)C(=O)NC2=O)c2ccccc21 [BIM I, Bisindolylmaleimide I]
WT hTREK-2
  effect on current: did not observe a current increase
hTREK-1
  effect on TREK-1 channel currents: not altered

## (2-(trimethylammonium)ethyl)MethaneThioSulfonate bromide [MTS-ET^+]
TREK-1 V322C
  effect of charged MTS probe on activity: channel inhibition
TREK-1 T318C
  effect of charged MTS probe on activity: channel inhibition
TREK-1 F325C
  effect of charged MTS probe on activity: channel inhibition
